# Measured values: patent US6150393A (priority 1999, dated 2000)
# Columns and labels:
# [1] = Bar catalepsy test in rats (extrapyramidal side effect analysis); assay type: in vivo, rat (male Sprague-Dawley); details: same dosing parameters and protocol; n=10 per dose; data not shown
# [2] = tested on: human mutated 5HT2A receptor, AP-3; test: Receptor-mediated inositol phosphate (IP3) accumulation, AP-3; assay type: cell-based
# Description: On day one, 1×10^7 293 cells per 150 mm plate were plated out. On day two, two reaction tubes were prepared (the proportions to follow for each tube are per plate): tube A was prepared by mixing 20 μg DNA (e.g., pCMV vector; pCMV vector AP-1 cDNA, etc.) in 1.2 ml serum free DMEM (Irvine Scientific, Irvine, Calif.); tube B was prepared by mixing 120 μl lipofectamine (Gibco BRL) in 1.2 ml serum free DMEM. Tubes A and B were then admixed by inversions (several times), followed by incubation at room temperature for 30-45 min. The admixture is referred to as the "transfection mixture". Plated 293 cells were washed with 1×PBS, followed by addition of 10 ml serum free DMEM. 2.4 ml of the transfection mixture was then added to the cells, followed by incubation for 4 hrs at 37° C./5% CO2. On day 3, cells were trypsinized and counted, followed by plating of 1×10^6 cells/well (poly D-lysine treated 12-well plates). Cells were permitted to adhere to the wells, followed by one wash with 1×PBS. Thereafter, 0.5 μCi ^3 H-inositol in 1 ml inositol-free DMEM was added per well. Protocol B.
# On day 4, the cells were washed with 0.5 ml PBS and then 0.45 ml of assay medium was added containing inositol-free/serum free media, 10 μM pargyline, 10 mM lithium chloride, or 0.4 ml of assay medium and 50 ul of 10× ketanserin (ket) to a final concentration of 10 μM. The cells were then incubated for 30 minutes at 37° C. Then the cells were washed with 0.5 ml PBS and 200 ul of fresh/ice cold stop solution (1M KOH; 18 mM Na-borate; 3.8 mM EDTA) was added/well. The solution was kept on ice for 5-10 minutes or until the cells were lysed and then neutralized by 200 μl of fresh/ice cold neutralization sol. (7.5% HCL). The lysate was then transferred into 1.5 ml microcentrifuge tubes and 1 ml of chloroform/methanol (1:2) was added/tube. The solution was vortexed for 15 seconds and the upper phase was applied to a Biorad AG1-X8 anion exchange resin (100-200 mesh). The resin was washed with water and 0.9 ml of the upper phase was loaded onto the column. The column was washed with 10 mls of 5 mM myo-inositol and 10 ml of 5 mM Na-borate/60 mM Na-formate. The inositol trisphosphates were eluted into scintillation vials containing 10 ml of scintillation cocktail with 2 ml of 0.1 M formic acid/1 M ammonium formate. The columns were regenerated by washing with 10 ml of 0.1 M formic acid/3M ammonium formate and rinsed twice with dd H2 O and stored at room temperature in water.
# Candidate compound identified in the assays of Examples 9a-9c were then evaluated for inositol phosphate accumulation, following the protocol of Example 5 ([…] expressing human mutated 5HT2A receptor, AP-3), modified as follows: tube A was prepared by mixing 16 μg DNA (e.g., pCMV vector; pCMV vector AP-1 cDNA, etc.) in 1.0 ml serum free DMEM (Irvine Scientific, Irvine, Calif.); tube B was prepared by mixing 60 μl lipofectamine (Gibco BRL) in 1.0 ml serum free DMEM. Tubes A and B were then admixed by inversions (several times), followed by incubation at room temperature for 30 min. The admixture is referred to as the "transfection mixture". Plated 293 cells were washed with 10 ml Serum Free DMEM, followed by addition of 11 ml Serum Free DMEM. 2.0 ml of the transfection mixture was then added to the cells, followed by incubation for 5 hrs at 37° C./5% CO2. On day 3, cells were trypsinized and counted, followed by plating of 1×10^6 cells/well (12-well plates). Cells were permitted to adhere to the wells for 8 hrs, followed by one wash with 1×PBS. Thereafter, 0.5 μCi ^3 H-inositol in 1 ml inositol-free DMEM was added per well.
# On day 4, the cells were washed with 1.5 ml PBS and then 0.9 ml of assay medium was added containing inositol-free/serum free media, 10 μM pargyline, 10 mM lithium chloride, for 5 min in 37° C./5% CO2 followed by 100 μl addition of candidate compound diluted in the same material. The cells were then incubated for 120 minutes at 37° C. […]
structure (smiles),measurement,setting,value
"Cn1cc(Br)c(-c2cccc(NC(=O)Nc3ccc(Cl)cc3)c2)n1 [Compound 116081, N-[3-(4-bromo-1-methylpyrazol-3-yl)phenyl][(4-chlorophenyl)amino]carboxamide]",cataleptic response,[1],did not produce a cataleptic response
same,IP3 % of Control,"[2]; 10 μM test compound, triplicate, control without test compound",10%
same,profile in in vitro functional assays,[2]; in vitro functional assays,selective 5HT2A inverse agonist properties
